Data reported in ChEMBL document CHEMBL4190285, “Borapetoside E, a Clerodane Diterpenoid Extracted from Tinospora crispa, Improves Hyperglycemia and Hyperlipidemia in High-Fat-Diet-Induced Type 2 Diabetes Mice” (J Nat Prod, 2017).
The source made the active and inactive calls.

Tests used:
Assay type in all cases: functional, organism-based
Mus musculus [1] = experiment: Antihyperlipidemic activity in high fat diet-induced obese C57BL/6J mouse assessed as reduction in liver free fatty acid level at 20 to 40 mg/kg, ip administered twice daily for 2.5 days measured at 2 hrs post last dose
Mus musculus [2] = experiment: Down regulation of SREBP2 mRNA expression in HFD-induced obese C57BL/6J mouse liver at 20 to 40 mg/kg, ip administered twice daily for 2.5 days measured at 2 hrs post last dose by RT-PCR analysis
Mus musculus [3] = experiment: Down regulation of HMGCR mRNA expression in HFD-induced obese C57BL/6J mouse adipose tissue at 20 to 40 mg/kg, ip administered twice daily for 2.5 days measured at 2 hrs post last dose by RT-PCR analysis
Mus musculus [4] = experiment: Down regulation of pre-SREBP1 expression in HFD-induced obese C57BL/6J mouse liver at 20 to 40 mg/kg, ip administered twice daily for 2.5 days measured at 2 hrs post last dose by Western blot analysis

Measured: Activity

COC(=O)C1=CCC[C@H]2[C@](C)(C[C@@H](O[C@@H]3O[C@H](CO)[C@@H](O)[C@H](O)[C@H]3O)c3ccoc3)[C@H]3C[C@H](OC3=O)[C@@]12C
active: all assays above
